The values below come from patent US4973587A, “3-arylcarbonyl-1-aminoalkyl-1H-indole-containing antiglaucoma method” (Sterling Drug Inc., priority 1990, dated 1990).

The first experiment deals with mouse vas deferens. The experiment can be described thus: mouse vas deferens test (MVD). Format: cell-based. To be noted: Mus musculus, inhibition of contractions in mouse vas deferens preparation in vitro; active at 5.0 μM or less. The source says: Med. Assoc. 217, 1392 (1971)]. […] Opth 7, 921-923 (1975); Green and Pederson, Effect of delta-9 Tetrahydrocannabinol on Aqueous Dynamics and Ciliary Body Permeability in the Rabbit Eye., Exptl. Eye Research 15, 499-507 (1973); Colasanti, Craig and Allara, Intraocular Pressure, Ocular Toxicity and Neurotoxicity after Administration of Cannabinol or Cannibigerol, Exptl. Eye Research 39, 252-259 (1984)]. Similarly, synthetic cannabinoids also reduce intraocular pressure [Green, Symunds, Oliver and Elijah, Intraocular Pressure Following Systemic Administration of Cannabinoids, Curr. Eye Research 2, 247-253 (1982); Tiedeman, Shields, Weber, Crow, Coccetto, Harris and Howes, Ophthalmology., 88, 270-277 (1981); Colasanti et al., supra]. Cannabinoid receptor binding sites can be defined as those to which radio-labelled 4-(1,1-dimethylheptyl)-2,3'-dihydroxy-6'alpha-(3-hydroxypropyl)-1',2',3',4',5',6'-hexahydrobiphenyl (CP 55940) binds in a specific and saturable manner, and the binding sites are heterogeneously distributed in the brain [Devane, Dysarz, Johnson, Melvin and Howlett, Determination and Characterization of a Cannabinoid Receptor in Rat Brain, Molecular Pharm. 34, 605-613 (1988)]. Natural and synthetic cannabinoids and representative examples of the compounds of the present invention bind to CP 55940 binding sites. […] It is believed that agonist activity at the cannabinoid receptor mediates the anti-glaucoma actions of cannabinoids, and that agonist activity at this receptor correlates with ocular pressure lowering actions in man.
As usually defined, the IC50 is the midpoint of a concentration-inhibition curve. The low end stands for inhibition by little substance, the high end for a need for much substance. As to `Cc1c(C(=O)c2ccnc3ccccc23)c2ccccc2n1CCN1CCOCC1` [Example 2BE], the 50% inhibitory concentration (IC50) came out at 115 nM.

As for `O=C(c1ccc2ncccc2c1)c1cn(CCN2CCOCC2)c2ccccc12` [Example 2BF], half-maximal inhibition (IC50) required 142 nM.

Take `O=C(c1cccc2ccccc12)c1c(Cl)n(CCN2CCOCC2)c2ccccc12` [Example 2BG]: the IC50 worked out at 6 nM.

With `Cc1c(C(=O)c2cccc3ccoc23)c2ccccc2n1CCN1CCOCC1` [Example 2BI], the midpoint of inhibition, the IC50, lay at 17 nM.

In turn, `O=C(c1cccc2occc12)c1cn(CCN2CCOCC2)c2ccccc12` [Example 2BJ] had an IC50 of 7 nM.

`O=C(c1ccc2ccoc2c1)c1cn(CCN2CCOCC2)c2ccccc12` [Example 2BK] returned an IC50 of 40 nM.

`O=C(c1cn(CCN2CCOCC2)c2ccccc12)c1cccc2ccoc12` [Example 2BL] registered an IC50 of 4 nM.

For `Cc1c(C(=O)Cc2ccccc2)c2ccccc2n1CCN1CCOCC1` [Example 2BM], the IC50 was 174 nM.

Consider `COc1ccc(C=CC(=O)c2c(C)n(CCN3CCOCC3)c3ccccc23)cc1` [Example 2BN], for which the IC50 is 138 nM.

`Cc1c(C(=O)C=Cc2cccc3ccccc23)c2ccccc2n1CCN1CCOCC1` [Example 2BO]: 130 nM corresponded to half-maximal inhibition (IC50).

The compound `O=C(c1cn(CCN2CCOCC2)c2ccccc12)C1CCCc2ccccc21` (stereo not shown) [Example 2BP] returned an IC50 of 10 nM.

`O=C(c1ccccc1F)c1cn(CCN2CCOCC2)c2ccccc12` [Example 2BQ] showed an IC50 of 500 nM.

`O=C(c1ccc2occc2c1)c1cn(CCN2CCOCC2)c2ccccc12` [Example 2BR] showed an IC50 of 30 nM.

In turn, `COCc1ccc(C(=O)c2c(C)n(CCN3CCOCC3)c3ccccc23)cc1` [Example 2BW] came in with an IC50 of 900 nM.

Take `Cc1ccc(C(=O)c2c(C)n(CCN3CCOCC3)c3ccccc23)c2ccccc12` [Example 2CA]: the IC50 came to 9 nM.

`Cc1ccc(C(=O)c2cn(CCN3CCOCC3)c3ccccc23)c2ccccc12` [Example 2CB]: half-maximal inhibition (IC50) required 3 nM.

For `O=C(c1cccc2cc(Cl)ccc12)c1cn(CCN2CCOCC2)c2ccccc12` [Example 2CE], half-maximal inhibition (IC50) required 88 nM.

The compound `Cc1c(C(=O)c2ccc(Cl)cc2Cl)c2ccccc2n1CCN1CCOCC1` [Example 2CF] returned an IC50 of 200 nM.

Regarding `Cc1c(C(=O)c2cc3ccc4cccc5ccc(c2)c3c45)c2ccccc2n1CCN1CCOCC1` [Example 2CG], the concentration for half-maximal inhibition (IC50) amounted to 40 nM.

The compound `Cc1c(C(=O)c2ccccc2Cl)c2ccccc2n1CCN1CCOCC1` [Example 2CH] gave a concentration for half-maximal inhibition (IC50) of 91 nM.

Take `O=C(c1ccc2ccccc2c1)c1cn(CCN2CCOCC2)c2ccccc12` [Example 2CJ]: the IC50 worked out at 31 nM.

`CC(CN1CCOCC1)n1cc(C(=O)c2ccccc2F)c2ccccc21` (stereo not shown) [Example 2E] returned an IC50 of 2400 nM.

Compound `COc1ccc(C(=O)c2c(C)n(C(C)CN3CCOCC3)c3ccccc23)cc1` (stereo not shown) [Example 2G] yielded a half-inhibitory concentration (IC50) of 1300 nM.

`Cc1cccc2c(C(=O)c3ccccc3)cn(C(C)CN3CCOCC3)c12` (stereo not shown) [Example 2H] returned an IC50 of 177 nM.

`Cc1ccccc1C(=O)c1c(C)n(CCN2CCOCC2)c2ccccc12` [Example 2K] returned an IC50 of 710 nM.

The compound `Cc1c(C(=O)c2coc3ccccc23)c2ccccc2n1CCN1CCOCC1` [Example 2N] came in with an IC50 of 52 nM.

Regarding `COc1ccc(C(=O)c2c(Cl)n(CCN3CCOCC3)c3ccccc23)cc1` [Example 2Q], the IC50 worked out at 176 nM.

In turn, `Cc1c(C(=O)c2cccc3ccccc23)c2ccccc2n1C(C)CN1CCOCC1` (stereo not shown) [Example 2Y] returned an IC50 of 10 nM.

The compound `Cc1c(C(=O)c2cccc3ccccc23)c2ccccc2n1CCN1CCCCC1` [Example 3A, 2-methyl-3-(1-naphthylcarbonyl)-1-[2-(1-piperidinyl)ethyl]-1H-indole] came in with an IC50 of 66 nM.

The same experiment, now with this note: inhibition of contractions in mouse vas deferens preparation in vitro; active at 5.0 μM or less.
For the compound `Cc1c(C(=O)c2ccc3cccnc3c2)c2ccccc2n1CCN1CCOCC1` [Example 2BH], the IC50 came out at 88 nM.

In the case of `Cc1c(C(=O)c2ccccc2F)c2ccccc2n1C(C)CN1CCOCC1` (stereo not shown) [Example 2C], 490 nM corresponded to half-maximal inhibition (IC50).
